{"source": "ChEMBL document CHEMBL6120948", "about": "“Design, Synthesis, and Biological Evaluation of Lysine-Stapled Peptide Inhibitors of p53-MDM2/MDMX Interactions with Potent Antitumor Activity In Vivo” (J Med Chem, 2024)", "key": {"[1]": {"assay": "Toxicity in BALB/c nude mouse xenografted with human HCT-116 cells assessed as change in weight of heart at 5 to 10 mg/kg, iv treated for 14 days on every 48 hrs", "assay_type": "organism-based", "details": "in vivo, 336 h, dose 5-10 mg/kg, time 14 day"}, "[2]": {"assay": "Toxicity in BALB/c nude mouse xenografted with human HCT-116 cells assessed as histopathological change in lungs at 5 to 10 mg/kg, iv treated for 14 days on every 48 hrs by H and E staining based analysis", "assay_type": "organism-based", "details": "in vivo, 336 h, dose 5-10 mg/kg, time 14 day"}, "[3]": {"system": "HCT-116", "assay": "Induction of cell cycle arrest in human HCT-116 cells assessed as accumulation at S phase at 20 uM incubated for 24 hrs by PI staining based flow cytometry (reference value: 31.8 %)", "assay_type": "functional"}, "[4]": {"assay": "Toxicity in BALB/c nude mouse xenografted with human HCT-116 cells assessed as histopathological change in kidneys at 5 to 10 mg/kg, iv treated for 14 days on every 48 hrs by H and E staining based analysis", "assay_type": "organism-based", "details": "in vivo, 336 h, dose 5-10 mg/kg, time 14 day"}, "[5]": {"assay": "Antiproliferative activity against HEK293T cells incubated for 72 hrs by MTT assay", "assay_type": "toxicity, cell-based, HEK-293T", "details": "human"}, "[6]": {"assay": "Toxicity in BALB/c nude mouse xenografted with human HCT-116 cells assessed as change in weight of spleen at 5 to 10 mg/kg, iv treated for 14 days on every 48 hrs", "assay_type": "organism-based", "details": "in vivo, 336 h, dose 5-10 mg/kg, time 14 day"}, "[7]": {"system": "HCT-116", "assay": "Induction of cell cycle arrest in human HCT-116 cells assessed as accumulation at G2 phase at 20 uM incubated for 24 hrs by PI staining based flow cytometry (reference value: 17.1 %)", "assay_type": "functional"}, "[8]": {"assay": "Antiproliferative activity against human SJSA-1 cells expressing wild-type p53 incubated for 72 hrs by MTT assay", "assay_type": "functional, cell-based", "details": "SJSA-1, 72 h"}, "[9]": {"system": "HCT-116", "assay": "Induction of apoptosis in human HCT-116 cells at 50 uM incubated for 48 hrs by Annexin V-FITC/PI staining based flow cytometry relative to control", "assay_type": "functional"}, "[10]": {"system": "A549", "assay": "Antiproliferative activity against human A549 cells expressing wild-type p53 incubated for 72 hrs by MTT assay", "assay_type": "functional, cell-based", "details": "A549, 72 h"}, "[11]": {"system": "HCT-116", "assay": "Induction of cell cycle arrest in human HCT-116 cells assessed as accumulation at G2 phase at 5 uM incubated for 24 hrs by PI staining based flow cytometry (reference value: 17.1 %)", "assay_type": "functional"}, "[12]": {"assay": "Stability of compound in 50 percent human serum assessed as half life measured for 24 hrs by HPLC analysis", "assay_type": "ADME, cell-free", "details": "50% human serum"}, "[13]": {"system": "HCT-116", "assay": "Induction of cell cycle arrest in human HCT-116 cells assessed as accumulation at G1 phase at 5 uM incubated for 24 hrs by PI staining based flow cytometry (reference value: 48.8 %)", "assay_type": "functional"}, "[14]": {"system": "HCT-116", "assay": "Induction of cell cycle arrest in human HCT-116 cells assessed as accumulation at G1 phase at 20 uM incubated for 24 hrs by PI staining based flow cytometry (reference value: 48.8 %)", "assay_type": "functional"}, "[15]": {"assay": "Toxicity in BALB/c nude mouse xenografted with human HCT-116 cells assessed as change in weight of lungs at 5 to 10 mg/kg, iv treated for 14 days on every 48 hrs", "assay_type": "organism-based", "details": "in vivo, 336 h, dose 5-10 mg/kg, time 14 day"}, "[16]": {"system": "HCT-116", "assay": "Induction of apoptosis in human HCT-116 cells at 100 uM incubated for 48 hrs by Annexin V-FITC/PI staining based flow cytometry relative to control", "assay_type": "functional"}, "[17]": {"system": "HepG2", "assay": "Antiproliferative activity against human HepG2 cells expressing wild-type p53 incubated for 72 hrs by MTT assay", "assay_type": "functional, cell-based", "details": "HepG2, 72 h"}, "[18]": {"assay": "Toxicity in BALB/c nude mouse xenografted with human HCT-116 cells assessed as histopathological change in liver at 5 to 10 mg/kg, iv treated for 14 days on every 48 hrs by H and E staining based analysis", "assay_type": "organism-based", "details": "in vivo, 336 h, dose 5-10 mg/kg, time 14 day"}, "[19]": {"system": "HCT-116", "assay": "Induction of cell cycle arrest in human HCT-116 cells assessed as accumulation at S phase at 10 uM incubated for 24 hrs by PI staining based flow cytometry (reference value: 31.8 %)", "assay_type": "functional"}, "[20]": {"system": "MCF7", "assay": "Antiproliferative activity against human MCF7 cells expressing wild-type p53 incubated for 72 hrs by MTT assay", "assay_type": "functional, cell-based", "details": "MCF7, 72 h"}, "[21]": {"system": "ZR-75-1", "assay": "Antiproliferative activity against human ZR-75-1 cells expressing wild-type p53 incubated for 72 hrs by MTT assay", "assay_type": "functional, cell-based", "details": "ZR-75-1, 72 h"}, "[22]": {"system": "A-375", "assay": "Antiproliferative activity against human A-375 cells expressing wild-type p53 incubated for 72 hrs by MTT assay", "assay_type": "functional, cell-based", "details": "A-375, 72 h"}, "[23]": {"assay": "Toxicity in BALB/c nude mouse xenografted with human HCT-116 cells assessed as change in weight of liver at 5 to 10 mg/kg, iv treated for 14 days on every 48 hrs", "assay_type": "organism-based", "details": "in vivo, 336 h, dose 5-10 mg/kg, time 14 day"}, "[24]": {"system": "HCT-116", "assay": "Induction of apoptosis in human HCT-116 cells at 25 uM incubated for 48 hrs by Annexin V-FITC/PI staining based flow cytometry relative to control", "assay_type": "functional"}, "[25]": {"assay": "Toxicity in BALB/c nude mouse xenografted with human HCT-116 cells assessed as change in body weight at 5 to 10 mg/kg, iv treated for 14 days on every 48 hrs", "assay_type": "organism-based", "details": "in vivo, 336 h, dose 5-10 mg/kg, time 14 day"}, "[26]": {"system": "HCT-116", "assay": "Antiproliferative activity against human HCT-116 cells expressing wild-type p53 incubated for 72 hrs by MTT assay", "assay_type": "functional, cell-based", "details": "HCT-116, 72 h"}, "[27]": {"assay": "Toxicity in BALB/c nude mouse xenografted with human HCT-116 cells assessed as histopathological change in heart at 5 to 10 mg/kg, iv treated for 14 days on every 48 hrs by H and E staining based analysis", "assay_type": "organism-based", "details": "in vivo, 336 h, dose 5-10 mg/kg, time 14 day"}, "[28]": {"system": "HCT-116", "assay": "Antitumor activity against human HCT-116 cells xenografted in BALB/c nude mouse at 10 mg/kg, iv treated for 14 days on every 48 hrs relative to control", "assay_type": "functional", "details": "HCT-116, 336 h, time 14 day, read-out: TGI"}, "[29]": {"system": "HCT-116", "assay": "Antitumor activity against human HCT-116 cells xenografted in BALB/c nude mouse at 5 mg/kg, iv treated for 14 days on every 48 hrs relative to control", "assay_type": "functional", "details": "HCT-116, 336 h, time 14 day, read-out: TGI"}, "[30]": {"system": "HCT-116", "assay": "Induction of cell cycle arrest in human HCT-116 cells assessed as accumulation at G2 phase at 10 uM incubated for 24 hrs by PI staining based flow cytometry (reference value: 17.1 %)", "assay_type": "functional"}, "[31]": {"system": "HCT-116", "assay": "Induction of cell cycle arrest in human HCT-116 cells assessed as accumulation at S phase at 5 uM incubated for 24 hrs by PI staining based flow cytometry (reference value: 31.8 %)", "assay_type": "functional"}, "[32]": {"assay": "Toxicity in BALB/c nude mouse xenografted with human HCT-116 cells assessed as change in weight of kidneys at 5 to 10 mg/kg, iv treated for 14 days on every 48 hrs", "assay_type": "organism-based", "details": "in vivo, 336 h, dose 5-10 mg/kg, time 14 day"}, "[33]": {"system": "HCT-116", "assay": "Induction of cell cycle arrest in human HCT-116 cells assessed as accumulation at G1 phase at 10 uM incubated for 24 hrs by PI staining based flow cytometry (reference value: 48.8 %)", "assay_type": "functional"}, "[34]": {"system": "HeLa", "assay": "Antiproliferative activity against human HeLa cells expressing wild-type p53 incubated for 72 hrs by MTT assay", "assay_type": "functional, cell-based"}, "[35]": {"assay": "Antiproliferative activity against human U-87 MG cells expressing wild-type p53 incubated for 72 hrs by MTT assay", "assay_type": "functional, cell-based, U-87MG ATCC"}, "[36]": {"assay": "Toxicity in BALB/c nude mouse xenografted with human HCT-116 cells assessed as histopathological change in spleen at 5 to 10 mg/kg, iv treated for 14 days on every 48 hrs by H and E staining based analysis", "assay_type": "organism-based", "details": "in vivo, 336 h, dose 5-10 mg/kg, time 14 day"}, "[37]": {"assay": "Induction of alpha-helical conformation in phosphate buffer at pH 7 at 100 uM by CD analysis", "assay_type": "physicochemical", "details": "pH 7, 100 µM"}}, "note": "pIC50: −log10 of the molar value.", "data": [{"smiles": "CC(=O)N[C@@H](CC(C)C)C(=O)N[C@H](C(=O)N[C@@H](Cc1ccccc1)C(=O)N[C@H]1CCCCNCc2cccc(c2)CNCCCC[C@@H](C(=O)N[C@@H](CCC(N)=O)C(=O)N[C@@H](CC(C)C)C(=O)N[C@H](C(=O)N[C@@H](CO)C(=O)N[C@@H](C)C(=O)N[C@@H](C)C(N)=O)[C@@H](C)O)NC(=O)[C@H](Cc2c[nH]c3ccccc23)NC(=O)[C@H](Cc2ccc(O)cc2)NC(=O)[C@H](Cc2c[nH]cn2)NC1=O)[C@@H](C)O", "values": [{"measurement": "Activity", "setting": "[1]", "value": "Non-toxic"}, {"measurement": "Activity", "setting": "[2]", "value": "Non-toxic"}, {"measurement": "Activity", "setting": "[3]", "value": 30.5, "unit": "%"}, {"measurement": "Activity", "setting": "[4]", "value": "Non-toxic"}, {"measurement": "IC50 at 72 h", "setting": "[5]", "value": "> 160", "unit": "µM"}, {"measurement": "Activity", "setting": "[6]", "value": "Non-toxic"}, {"measurement": "Activity", "setting": "[7]", "value": 31.2, "unit": "%"}, {"measurement": "pIC50", "setting": "[8]", "value": "< 3.80"}, {"measurement": "Activity", "setting": "[9]", "value": 94.4, "unit": "%"}, {"measurement": "pIC50", "setting": "[10]", "value": 4.56}, {"measurement": "Activity", "setting": "[11]", "value": 25.3, "unit": "%"}, {"measurement": "half-life", "setting": "[12]", "value": 12, "unit": "h"}, {"measurement": "Activity", "setting": "[13]", "value": 35.6, "unit": "%"}, {"measurement": "Activity", "setting": "[14]", "value": 37.4, "unit": "%"}, {"measurement": "Activity", "setting": "[15]", "value": "Non-toxic"}, {"measurement": "Activity", "setting": "[16]", "value": 93.14, "unit": "%"}, {"measurement": "pIC50", "setting": "[17]", "value": "< 3.80"}, {"measurement": "Activity", "setting": "[18]", "value": "Non-toxic"}, {"measurement": "Activity", "setting": "[19]", "value": 33, "unit": "%"}, {"measurement": "pIC50", "setting": "[20]", "value": 5.52}, {"measurement": "pIC50", "setting": "[21]", "value": 5.59}, {"measurement": "pIC50", "setting": "[22]", "value": 4.31}, {"measurement": "Activity", "setting": "[23]", "value": "Non-toxic"}, {"measurement": "Activity", "setting": "[24]", "value": 35.22, "unit": "%"}, {"measurement": "Activity", "setting": "[25]", "value": "Non-toxic"}, {"measurement": "pIC50", "setting": "[26]", "value": 5.24}, {"measurement": "Activity", "setting": "[27]", "value": "Non-toxic"}, {"measurement": "inhibition in vivo at 10 mg/kg", "setting": "[28]", "value": 30, "unit": "%"}, {"measurement": "inhibition in vivo at 5 mg/kg", "setting": "[29]", "value": 13, "unit": "%"}, {"measurement": "Activity", "setting": "[30]", "value": 28, "unit": "%"}, {"measurement": "Activity", "setting": "[31]", "value": 37.7, "unit": "%"}, {"measurement": "Activity", "setting": "[32]", "value": "Non-toxic"}, {"measurement": "Activity", "setting": "[33]", "value": 38.1, "unit": "%"}, {"measurement": "pIC50", "setting": "[34]", "value": 4.34}, {"measurement": "pIC50", "setting": "[35]", "value": 5.43}, {"measurement": "Activity", "setting": "[36]", "value": "Non-toxic"}, {"measurement": "Activity", "setting": "[37]", "value": 11, "unit": "%"}]}]}
